# From ChEMBL document CHEMBL4304802, “Novel promising 4-anilinoquinazoline-based derivatives as multi-target RTKs inhibitors: Design, molecular docking, synthesis, and antitumor activities in vitro and vivo” (Bioorg Med Chem, 2019)
# How the values were obtained:
# [1] = test system: DU-145; experiment: Antiproliferative activity against human DU145 cells incubated for 72 hrs by MTT assay; type: functional, cell-based; conditions: DU-145, 72 h
# [2] = test system: A549; experiment: Antiproliferative activity against human A549 cells incubated for 72 hrs by MTT assay; type: functional, cell-based; conditions: A549, 72 h
# [3] = test system: MCF7; experiment: Antiproliferative activity against human MCF7 cells incubated for 72 hrs by MTT assay; type: functional, cell-based; conditions: MCF7, 72 h
# [4] = test system: SH-SY5Y; experiment: Antiproliferative activity against human SH-SY5Y cells incubated for 72 hrs by MTT assay; type: functional, cell-based
# [5] = test system: HepG2; experiment: Antiproliferative activity against human HepG2 cells incubated for 72 hrs by MTT assay; type: functional, cell-based; conditions: HepG2, 72 h
# [6] = Cytotoxicity against human CCC-HPF1 cells assessed as decrease in cell viability incubated for 72 hrs by MTT assay; type: cell-based; conditions: CCC-HPF-1, 72 h
Compound,IC50 [1] [µM],IC50 [2] [µM],IC50 [3] [µM],IC50 [4] [µM],IC50 [5] [µM],IC50 [6] [µM]
c1ccc(COc2ccccc2Nc2ncnc3cc4c(cc23)OCCOCCO4)cc1,> 100,> 100,> 100,93.7,> 100,–
FC(F)(F)c1ccc(COc2cccc(Nc3ncnc4cc5c(cc34)OCCOCCO5)c2)cc1,> 100,> 100,> 100,19.3,> 100,–
c1ccc(COc2ccccc2Nc2ncnc3cc4c(cc23)OCCOCCOCCOCCO4)cc1,> 100,48.5,> 100,24,29.2,–
FC(F)(F)c1ccc(COc2ccc(Nc3ncnc4cc5c(cc34)OCCOCCO5)cc2)cc1,> 100,> 100,> 100,30.4,> 100,–
O=[N+]([O-])c1ccc(COc2ccccc2Nc2ncnc3cc4c(cc23)OCCOCCOCCO4)cc1,> 100,29.9,> 100,75.5,60.8,–
O=[N+]([O-])c1ccc(COc2cccc(Nc3ncnc4cc5c(cc34)OCCOCCOCCO5)c2)cc1,> 100,> 100,> 100,> 100,> 100,–

# Continued, in another order:
IC50 [1] [µM],IC50 [2] [µM],IC50 [3] [µM],IC50 [4] [µM],IC50 [5] [µM],Compound,IC50 [6] [µM]
> 100,> 100,> 100,> 100,> 100,O=[N+]([O-])c1ccc(COc2ccc(Nc3ncnc4cc5c(cc34)OCCOCCOCCOCCO5)cc2)cc1,–
13.8,19.8,6.41,8.42,9.82,O=[N+]([O-])c1ccc(COc2cccc(Nc3ncnc4cc5c(cc34)OCCOCCOCCOCCO5)c2)cc1,> 100
8.8,29.5,12,5.25,11.9,c1ccc(COc2ccc(Nc3ncnc4cc5c(cc34)OCCOCCOCCOCCO5)cc2)cc1,33.7
> 100,7.59,40.9,68.4,> 100,c1ccc(COc2cccc(Nc3ncnc4cc5c(cc34)OCCOCCO5)c2)cc1,> 100
> 100,43.9,> 100,39.3,55.5,c1ccc(COc2ccc(Nc3ncnc4cc5c(cc34)OCCOCCO5)cc2)cc1,–
2.76,24.9,17.6,20,34,FC(F)(F)c1ccc(COc2cccc(Nc3ncnc4cc5c(cc34)OCCOCCOCCO5)c2)cc1,33.3
